# Experimental data: patent US10597388B2, “Pyridazinone herbicides” (FMC CORPORATION, priority 2014, dated 2020)
# Assays:
# Format in all cases: in vivo
# [1] = tested on: foxtail, giant (giant foxtail, Setaria faberii); assay: Test C greenhouse herbicide test, pre- and postemergence
# Procedure, shortened: (§1)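 Preemergence: seeds sown in a loam soil–sand blend and sprayed with test chemicals in a non-phytotoxic solvent mixture containing surfactant. Postemergence: plants grown in peat-based medium and treated at 2 to 18 cm (1- to 4-leaf stage). After 13 to 15 d in a greenhouse, injury was visually rated 0–100 against controls.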
# [2] = tested on: oilseed rape (Brassica napus); assay: as above
# Procedure, shortened: as §1
# [3] = tested on: crabgrass, large (large crabgrass, Digitaria sanguinalis); assay: as above
# Procedure, shortened: as §1
# [4] = tested on: lambsquarters (Chenopodium album); assay: as above
# Procedure, shortened: as §1
# [5] = tested on: galium (catchweed bedstraw, Galium aparine); assay: as above
# Procedure, shortened: as §1
# [6] = tested on: wheat (winter wheat, Triticum aestivum); assay: as above
# Procedure, shortened: as §1
# [7] = tested on: johnsongrass (Sorghum halepense); assay: as above
# Procedure, shortened: as §1
# [8] = tested on: morningglory (Ipomoea coccinea); assay: as above
# Procedure, shortened: as §1
# [9] = tested on: barnyardgrass (Echinochloa crus-galli); assay: as above; details: Postemergence
# Procedure, shortened: as §1
# [10] = tested on: ryegrass, Italian (Italian ryegrass, Lolium multiflorum); assay: as above
# Procedure, shortened: as §1
# [11] = tested on: ragweed (common ragweed, Ambrosia elatior); assay: as above
# Procedure, shortened: as §1
# [12] = tested on: galium (catchweed bedstraw, Galium aparine); assay: Test A greenhouse herbicide test, postemergence
# Procedure, shortened: (§2)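 Greenhouse postemergence test: formulated chemicals sprayed on one- to two-leaf plants (2 to 10 cm), grown in loam soil blended with sand. Injury assessed visually about 10 d later against untreated controls, scored 0 (no effect) to 100 (complete control).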
# [13] = tested on: blackgrass (Alopecurus myosuroides); assay: Test A greenhouse herbicide test, postemergence
# Procedure, shortened: as §2
# [14] = Postemergence, 31 g ai/ha, scale 0 to 100 (0 no effect, 100 complete control)
# [15] = Postemergence, 62 g ai/ha, 0 to 100 scale (0 no effect, 100 complete control)
# [16] = Postemergence, 250 g ai/ha, scale 0 to 100, 0 no effect, 100 complete control, 13 to 15 d
# [17] = postemergence, 125 g ai/ha, scale 0 to 100, 0 no effect, 100 complete control
# [18] = 125 g ai/ha, 0 to 100 scale where 0 is no effect and 100 is complete control
# [19] = 500 g ai/ha, visual rating after approx. 10 d, 0 to 100 scale (0 no effect, 100 complete control)
smiles,measurement,setting,value
COC(=O)Oc1c(C)nn(C)c(=O)c1-c1ccc(F)c2ccccc12 [Compound 130],"Plant response rating, Foxtail, Giant",[1]; [14],20
same,"Foxtail, Giant plant response rating",[1]; [15],20
same,"Plant response rating, Foxtail, Giant",[1]; [16],70
same,"Foxtail, Giant plant response rating",[1]; [17],40
same,"Plant response rating, Oilseed Rape",[2]; [14],0
same,Oilseed Rape plant response rating,[2]; [15],0
same,"Plant response rating, Oilseed Rape",[2]; [16],0
same,Oilseed Rape plant response rating,[2]; [17],0
same,"Plant response rating, Crabgrass, Large",[3]; [14],10
same,"Crabgrass, Large plant response rating",[3]; [15],15
same,"Plant response rating, Crabgrass, Large",[3]; [16],60
same,"Crabgrass, Large plant response rating",[3]; [17],15
same,"Plant response rating, Lambsquarters",[4]; [14],90
same,Lambsquarters plant response rating,[4]; [15],98
same,"Plant response rating, Lambsquarters",[4]; [16],100
same,Lambsquarters plant response rating,[4]; [17],100
same,"Plant response rating, Galium",[5]; [14],95
same,Galium plant response rating,[5]; [15],95
same,"Plant response rating, Galium",[5]; [16],98
same,Galium plant response rating,[5]; [17],95
same,"Plant response rating, Wheat",[6]; [14],0
same,Wheat plant response rating,[6]; [15],5
same,"Plant response rating, Wheat",[6]; [16],15
same,Wheat plant response rating,[6]; [17],10
same,"Plant response rating, Johnsongrass",[7]; [14],5
same,Johnsongrass plant response rating,[7]; [15],5
same,"Plant response rating, Johnsongrass",[7]; [16],20
same,Johnsongrass plant response rating,[7]; [17],5
same,"Plant response rating, Morningglory",[8]; [14],75
same,Morningglory plant response rating,[8]; [15],80
same,"Plant response rating, Morningglory",[8]; [16],100
same,Morningglory plant response rating,[8]; [17],85
same,"Plant response rating, Barnyardgrass","[9]; 31 g ai/ha, scale 0 to 100 (0 no effect, 100 complete control)",30
same,Barnyardgrass plant response rating,"[9]; 62 g ai/ha, 0 to 100 scale (0 no effect, 100 complete control)",30
same,"Plant response rating, Barnyardgrass","[9]; 125 g ai/ha, scale 0 to 100, 0 is no effect, 100 is complete control",35
same,"Plant response rating, Barnyardgrass","[9]; 250 g ai/ha, scale 0 to 100, 0 no effect, 100 complete control, 13 to 15 d",55
same,"Plant response rating, Ryegrass, Italian",[10]; [14],90
same,"Ryegrass, Italian plant response rating",[10]; [15],90
same,"Plant response rating, Ryegrass, Italian",[10]; [16],95
same,"Ryegrass, Italian plant response rating",[10]; [17],95
same,"Plant response rating, Ragweed",[11]; [14],85
same,Ragweed plant response rating,[11]; [15],90
same,"Plant response rating, Ragweed",[11]; [16],98
same,Ragweed plant response rating,[11]; [17],98
same,"Plant response rating, Galium",[12]; [18],100
same,"Plant response rating, Galium",[12]; [19],100
same,"Plant response rating, Blackgrass",[13]; [18],60
same,"Plant response rating, Blackgrass",[13]; [19],70
